In patent publication US20140272066A1, “GLUTAMIC ACID DERIVATIVES” (Givaudan S.A., priority 2011, published 2014):

Key:
[1] = Flavourist taste panel, solution B (with compound) rated against reference solution A; format: in vivo, human; details: 10 ppm compound in 0.5% NaCl and 0.03% MSG, vs solution A; scale -3 (much lower than base) to 3 (much higher); average of 4 flavourists
Method: Two solutions were prepared:
The samples were tasted by a small group of flavourists (2 male, 2 female, aged between 30 and 60). The intensity of the umami and salt taste of solution B was compared with that of the reference (solution A) and rated according to the following intensity scale:
The results (average of ratings given by the flavourists) were: […]

[2] = Flavourist comparison of white sauce with and without compound; format: in vivo, human; details: 200 ppm in white sauce; 4 flavourists
Method: A white sauce mix was prepared from 380 g of modified starch Prejel, 200 g of whey powder Esprion 300, 200 g of fat powder (ex DMV), 115 g of sodium chloride, 85.3 g of maltodextrin 14, 3 g of onion powder, 0.2 g of curcuma extract powder (ex turmeric), 1.5 g of white pepper and 15 g of probase high impact.
80 g of the well-mixed ingredients was added to 1 L of boiling water and stirred well.
A small group of flavourists (2 male, 2 female) compared the taste of the reference white sauce with that of a batch of the same white sauce containing 200 ppm of DL-threo-3-methylglutamic acid.

[3] = Flavourist comparison of Béchamel sauce with cheese with and without compound; format: in vivo, human; details: 200 ppm in Béchamel sauce with cheese; 4 flavourists
Method: A Béchamel sauce with cheese was prepared from 70 g of butter, 50 g of flower, 1000 g of milk, 5 g of sodium chloride, 0.3 g of MSG, 0.15 g of nutmeg powder, 0.25 g of black pepper and 80 g of cheese powder. A blanc roux was prepared from the butter and flower before adding the other ingredients.
A small group of flavourists (2 male, 2 female) compared the taste of the reference Béchamel sauce with cheese with that of a batch of the same Béchamel sauce with cheese containing 200 ppm of DL-threo-3-methylglutamic acid.

[4] = Flavourist comparison of bouillon with and without compound; format: in vivo, human; details: 200 ppm in bouillon; 4 flavourists
Method: A bouillon mix was prepared from 155.0 g of sodium chloride, 157.0 g of dextrose monohydrate (ex Tapioca), 0.2 g of celery oleoresin, 0.3 g of oleoresin turmeric Vegex, 0.2 g of oleoresin coriander seed, 444.8 g maltodextrin 5-8 DE, 40.0 g vegetable oil soya bean refined, 30.0 g yeast standard light, 4.0 g of onion powder, 4.0 g of garlic powder, 0.5 g of white pepper and 164.0 g of potato starch.
32 g of the well-mixed ingredients was added to 1 L of boiling water and stirred until completely dissolved.
A small group of flavourists (2 male, 2 female) compared the taste of the reference bouillon with that of a batch of the same bouillon containing 200 ppm of DL-threo-3-methylglutamic acid.

[5] = at concentrations comparable to MSG; cited from earlier work

Structure (SMILES)	Intensity Taste Salt (NaCl) [1]	Intensity Taste Umami [1]	Taste of test white sauce compared with reference sauce [2]	Taste of test Béchamel sauce with cheese compared with reference [3]	Taste of test bouillon compared with reference bouillon [4]	Umami taste [5]
CCCCCC(CC(=O)O)C(N)C(=O)O (stereo not shown) [2-amino-3-pentylpentanedioic acid, 2-amino-3-pentylpentanedioic Acid]	0.00	0.33	–	–	–	–
CC(CC(=O)O)C(N)C(=O)O (racemic) [DL-threo-3-methylglutamic acid, DL-threo-3-methylglutamic Acid]	0.33	1.00	fuller and slightly more umami	richer and more longlasting	more umami, had an enhanced body of salt and was more salivating	–
CCCC(CC(=O)O)C(N)C(=O)O (stereo not shown) [2-amino-3-propylpentanedioic acid, 2-amino-3-propylpentanedioic Acid]	0.33	0.33	–	–	–	–
N[C@@H](CC(=O)O)C(=O)O [aspartic acid]	–	–	–	–	–	hardly any umami taste
